This is an account of results in patent US12390437B2, “Itaconic acid derivatives and uses thereof intreating an inflammatory disease or a disease associated with an undesirable immune response” (Sitryx Therapeutics Limited, priority 2019, dated 2025).

The nature of data set [1]: Mouse pharmacokinetic study, oral administration. The note with it: male, C57BL/6, mouse, plasma, po, 100 mg/kg, plasma, male C57BL/6 mice, oral gavage 100 mg/kg; for concentration at 0.083 h: read-out: Parent compound concentrations following oral administration, Time 0.083 h; for concentration at 0.25 h: read-out: Parent compound concentrations following oral administration, Time 0.25 h; for concentration at 0.5 h: read-out: Parent compound concentrations following oral administration, Time 0.5 h; for concentration at 1 h: read-out: Parent compound concentrations following oral administration, Time 1 h; for concentration at 2 h: read-out: Parent compound concentrations following oral administration, Time 2 h; for concentration at 4 h: read-out: Parent compound concentrations following oral administration, Time 4 h; for concentration at 6 h: read-out: Parent compound concentrations following oral administration, Time 6 h; for concentration at 8 h: read-out: Parent compound concentrations following oral administration, Time 8 h; for concentration at 24 h: read-out: Parent compound concentrations following oral administration, Time 24 h. In kind it is in vivo. The gist of the method: (§1)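 PK, male C57BL/6 mice, 6-8 wk. IV: 10 mg/kg tail vein, 3 min–8 h sampling. PO: 100 mg/kg gavage, 5 min–24 h sampling. N=3/time point, semi-serial facial-vein bleeds, K2EDTA plasma, LC-MS/MS.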

Data set [2] is described as follows: Hepatocyte stability assay (mouse). In kind it is in vitro ADME. The note with it: cryopreserved hepatocytes, 10 μM compound, 0.5×10^6 cells/mL, 60 minutes, read-out: T½. The text has this: (§2) Defrosted cryo-preserved hepatocytes (viability >70%) are used to determine the metabolic stability of a compound via calculation of intrinsic clearance (Clint; a measure of the removal of a compound from the liver in the absence of blood flow and cell binding). Clearance data are particularly important for in vitro work as they can be used in combination with in vivo data to predict the half-life and oral bioavailability of a drug.
(§3) The metabolic stability in hepatocytes assay involves a time-dependent reaction using both positive and negative controls. The cells must be pre-incubated at 37° C. then spiked with test compound (and positive control); samples taken at pre-determined time intervals are analysed to monitor the change in concentration of the initial drug compound over 60 minutes. A buffer incubation reaction (with no hepatocytes present) acts as a negative control and two cocktail solutions, containing compounds with known high and low clearance values (verapamil/7-hydroxycoumarin and propranolol/diltiazem), act as positive controls. • 1. The assay is run with a cell concentration of 0.5×10^6 cells/mL in Leibovitz buffer. • 2. All compounds and controls are run in duplicate. • 3. Compound concentration is 10 μM. • 4. All compounds and controls are incubated with both cells and buffer to show turnover is due to hepatic metabolism. • 5. All wells on the incubation plate will have 326.7 μL of either cells or buffer added. • 6. Prior to assay, cell and buffer-only incubation plates are preincubated for 10 mins at 37° C. • 7. The assay is initiated by adding compounds, 3.3 μL of 1 mM in 10% DMSO-90% Buffer; final DMSO concentration is 0.1%. • 8. Samples are taken at regular timepoints (0, 5, 10, 20, 40, 60 min) until 60 mins. • 9. Sample volume is 40 μL and it is added to 160 μL of crash solvent (acetonitrile with internal standard) and stored on ice. • 10. At the end of the assay, the crash plates are centrifuged at 3500 rpm for 20 mins at 4° C. • 11. 80 μL of clear supernatant is removed and mixed with 80 μL of deionised water before being analysed by LC-MS/MS.
(§4) Raw LC-MS/MS data are exported to, and analysed in, Microsoft Excel for determination of intrinsic clearance. The percentage remaining of a compound is monitored using the peak area of the initial concentration as 100%. Intrinsic clearance and half-life values are calculated using a graph of the natural log of percentage remaining versus the time of reaction in minutes. Half-life (min) and intrinsic clearance (Clint in μL min^−1 10^−6 cells) values are calculated using the gradient of the graph (the elimination rate constant, k) and Equations 1 and 2.

For data set [3], the system named is hepatocytes. The experiment in a line: Hepatocyte stability assay (mouse). Conditions: 10 μM compound, 0.5×10^6 cells/mL, 60 minutes. In kind it is in vitro ADME.
Source text: as §2, §3, §4

The nature of data set [4]: Mouse pharmacokinetic study, intravenous dosing. Format: in vivo. The note with it: male, C57BL/6, mouse, iv, plasma, 10 mg/kg i.v., read-out: Parent compound concentration following intravenous administration. The procedure, abridged: as §1

As for `C=C(CC(=O)O[C@@H](CCCCCC)C(F)(F)F)C(=O)OCC(=O)O` [Example 182, (S)-2-((2-methylene-4-oxo-4-((1,1,1-trifluorooctan-2-yl)oxy)butanoyl)oxy)acetic acid], in data set [1], the concentration at 0.083 h was 65900 ng/mL, the concentration at 0.25 h came out at 46800 ng/mL, the concentration at 0.5 h was found to be 27900 ng/mL and the concentration at 1 h worked out at 13500 ng/mL. Further, in data set [1], the concentration at 2 h stood at 5390 ng/mL, the concentration at 4 h was 1370 ng/mL, the concentration at 6 h came out at 1280 ng/mL and the concentration at 8 h came to 417 ng/mL. The concentration at 24 h in data set [1] came to 5.9 ng/mL. The half-life at 10 μM in data set [2] was found to be 9 min. Moreover, the “CIint (μL min^−1 10^−6 cells)” value in data set [3] is 187 μL min^−1 10^−6 cells. For the same compound, in data set [4], the concentration at 0.05 h came out at 40800 ng/mL, the concentration at 0.133 h is 17900 ng/mL, the concentration at 0.25 h was 6740 ng/mL and the concentration at 0.5 h turned out to be 2890 ng/mL. In data set [4], the concentration at 1 h turned out to be 642 ng/mL, the concentration at 2 h amounted to 88 ng/mL, the concentration at 4 h was 20 ng/mL and the concentration at 6 h worked out at 6 ng/mL. Moreover, the concentration at 8 h in data set [4] is < 4 ng/mL.
As to `C=C(CC(=O)OCCCCCC)C(=O)OCC(=O)O` [Example 94, 2-((4-(hexyloxy)-2-methylene-4-oxobutanoyl)oxy)acetic acid], in data set [1], the concentration at 0.083 h stood at 27800 ng/mL, the concentration at 0.25 h is 12600 ng/mL, the concentration at 0.5 h was determined as 8220 ng/mL and the concentration at 1 h was 3110 ng/mL. Moreover, in data set [1], the concentration at 2 h amounted to 2140 ng/mL, the concentration at 4 h was found to be 392 ng/mL, the concentration at 6 h stood at 196 ng/mL and the concentration at 8 h came out at 90 ng/mL. For the same compound, the concentration at 24 h in data set [1] was < 0.8 ng/mL. Further, the half-life at 10 μM in data set [2] stood at 23 min. Moreover, in data set [3], the “CIint (μL min^−1 10^−6 cells)” value amounted to 60 μL min^−1 10^−6 cells. For the same compound, in data set [4], the concentration at 0.05 h was 18000 ng/mL, the concentration at 0.133 h came to 6070 ng/mL, the concentration at 0.25 h was 2440 ng/mL and the concentration at 0.5 h was 550 ng/mL. For the same compound, in data set [4], the concentration at 1 h amounted to 42 ng/mL, the concentration at 2 h stood at 1.9 ng/mL, the concentration at 4 h was 1.4 ng/mL and the concentration at 6 h was < 0.8 ng/mL. The concentration at 8 h in data set [4] was < 0.8 ng/mL.
Consider `C=C(CC(=O)O[C@H](C)CCCCCC)C(=O)OCc1nn[nH]n1` [Example 161, (R)-1-((2H-tetrazol-5-yl)methyl) 4-(octan-2-yl) 2-methylenesuccinate], for which, in data set [1], the concentration at 0.083 h came out at 7020 ng/mL, the concentration at 0.25 h is 4340 ng/mL, the concentration at 0.5 h is 1900 ng/mL and the concentration at 1 h was determined as 1260 ng/mL. Besides, in data set [1], the concentration at 2 h was determined as 727 ng/mL, the concentration at 4 h came to 186 ng/mL, the concentration at 6 h is 108 ng/mL and the concentration at 8 h is 16 ng/mL. Besides, the concentration at 24 h in data set [1] is < 4 ng/mL. Further, the half-life at 10 μM in data set [2] was < 3 min. In addition, the “CIint (μL min^−1 10^−6 cells)” value in data set [3] is reported as >460 μL min^−1 10^−6 cells. For the same compound, in data set [4], the concentration at 0.05 h was 8890 ng/mL, the concentration at 0.133 h came to 2380 ng/mL, the concentration at 0.25 h came to 846 ng/mL and the concentration at 0.5 h was 343 ng/mL. Moreover, in data set [4], the concentration at 1 h amounted to 90 ng/mL, the concentration at 2 h came out at 5.1 ng/mL, the concentration at 4 h was < 4 ng/mL and the concentration at 6 h was < 4 ng/mL. For the same compound, the concentration at 8 h in data set [4] was < 4 ng/mL.
